Experimental data: US4869895A, “Radiolabeled benzazepine” (Hoffmann-La Roche Inc., priority 1988, dated 1989)

Experiments:
[1] = target: benzodiazepine (BZ) receptor; test: in vitro displacement: prevention of the binding of the compound of formula I; parameters: species or system rat (male, Sprague-Dawley); conditions: rat cerebral cortical tissue; given in words only
[2] = tested on: benzodiazepine (BZ) receptor; test: in vitro benzodiazepine receptor binding of the compound of formula I (saturation, rat cerebral cortical tissue); parameters: species or system rat (male, Sprague-Dawley); conditions: for Bmax / Kd: 60 min incubation, pH 7.7; for Ratio (Specific/nonspecific): concentration of the compound of formula I at Kd, nonspecific with 10^-6 M clonazepam
[3] = tested on: BZ receptors in the brain; test: in vivo binding of the compound of formula I in mouse cerebral cortex; parameters: species or system mouse (male, ICR); conditions: mice, tail vein injection
Description: In vivo binding of the compound of formula I was determined according to the following procedures. Mice (male, 30 g ICR, Hilltop Farms) were injected via the tail vein with the compound of formula I. Ten or 30 minutes later, the mice were killed, the cerebral cortices of the brains were dissected solubilized, and the radioactivity was determined using standard methods. In order to determine nonspecific binding, some mice were pretreated with 5 mg/kg clonazepam (30 min ip). Specific/nonspecific binding ratios in cerebral cortex were about 2 at 10 minutes. The tissues in these tests were assayed directly without first homogenizing and washing them to reduce nonspecific binding. Therefore, the ratios were true in vivo ratios. Radioactivity was low and specific binding was negligible at 30 minutes.

For `O=C1CN=C(c2ccccc2Cl)c2cc([N+](=O)[O-])ccc2N1` [clonazepam], the “Ki, prevention of binding of the compound of formula I” value (shortened to “Ki, prevention”) [1] was “in the nM range”.
For `Cc1ncc2n1-c1ccc(Cl)cc1C(c1ccccc1F)=NC2` [midazolam], the “Ki, prevention” value [1] was “in the nM range”.
`CCOC(=O)c1ncn2c1CN(C)C(=O)c1cc(F)ccc1-2` [Ethyl-8-fluoro-5,6-dehydro-5-methyl-6-oxo-4H-imidazol-[1,5-a]-1,4[benzodiazepine-3-carboxylate]] was tested, and the “Ki, prevention” value [1] was “in the nM range”.
In the case of `[3H]c1cc(Cl)cc2c1C1=C(CN=C2c2ccccc2Cl)C(=O)NC1` [compound of formula I, 8-Chloro-6-(2-chlorophenyl)-1,4-dihydropyrrolo-[3,4-d][2]-10-t-benzazepin-3(2H)-one], the Bmax ([2]; 0 °C) is reported as 1.36 × 10^-10 mol/mg wet weight, the Kd ([2]; 0 °C) is reported as 180 ± 50 pM and the “Ratio (Specific/nonspecific)” value ([2]; 0 °C) is reported as 12. The “specific to nonspecific ratios (FIG. 1)” value ([2]; 37 °C, 0.01 to 10 nM, over a relatively large range of concentrations) was “high”, the Bmax ([2]; 37 °C) was 1.22 × 10^-10 mol/mg wet weight and the Kd ([2]; 37 °C) was 820 ± 30 pM. For the same compound, the “Ratio (Specific/nonspecific)” value ([2]; 37 °C) was 4, the “affinity and selectivity for BZ receptors in the brain” value ([2]; summary statement) was “high affinity and is a selective ligand for BZ receptors in the brain” and the “Specific/nonspecific binding ratio in cerebral cortex” value ([3]; 10 minutes, nonspecific: 5 mg/kg clonazepam (30 min ip), tissue not homogenized or washed) was “about 2”. The “Radioactivity in cerebral cortex” value ([3]; 30 minutes) was “low” and the “specific binding in cerebral cortex” value ([3]; 30 minutes) was “negligible”.
